Bridge positions count the residues as written; N and C are the ends. Ends that are not written are not given here.
How the values were obtained:
[1] = Plasma stability in vitro, cynomolgus plasma; assay type: in vitro ADME; design: dose or concentration left out as unconfirmed; settings: cynomolgus monkey, 37°C, incubated in duplicate, intact peptide by LC/MS/MS, read-out: t1/2 in cynomolgus plasma (converted)
From the text: Affinity maturation of these initial families produced ligands with improved affinities; and combinations of these ligands (one each for IL-7Rα and γc) were joined into heterodimers in a variety of orientations (i.e., joined by N-termini, C-termini, or N-to-C termini), with several connection chemistries, for testing as IL-7R agonists in cell-based assays. The lead peptide agonist for detailed characterization, as described here, is a fusion of peptides MDK1248 and MDK1188, joined with a short intervening linker to form the single-chain peptide MDK1472. The peptides were analyzed for sequence similarity to IL-7, and none was found.
Supplementary file pone.0286834.s001.pptx: S1 Fig Plasma stability of MDK 1472 in vitro. […] MDK1472 or control peptide YGGFL incubated in duplicate in human or cynomolgus plasma at 37°C. At indicated time points, compounds were isolated from the plasma and the quantity of intact peptides measured by LC/MS/MS (Study performed by Quintara Discovery, Hayward, CA). (PPTX) Click here for additional data file.

[2] = molecular target: T1, IL-2βγc receptor (Homo sapiens, UniProt P31785); assay: IL-2-induced pSTAT5 in TF-1 cells expressing IL-2/15Rβ; assay type: cell-based
T1 construct: pcDNA3.1 expression vector encoding full-length IL-2Rβ, IL-7Rα, IL-9Rα, or IL-21Rα; TF-1 cells naturally express γc and IL-4Rα; expressed in transfected cells
T1 sequence (P31785 23-369): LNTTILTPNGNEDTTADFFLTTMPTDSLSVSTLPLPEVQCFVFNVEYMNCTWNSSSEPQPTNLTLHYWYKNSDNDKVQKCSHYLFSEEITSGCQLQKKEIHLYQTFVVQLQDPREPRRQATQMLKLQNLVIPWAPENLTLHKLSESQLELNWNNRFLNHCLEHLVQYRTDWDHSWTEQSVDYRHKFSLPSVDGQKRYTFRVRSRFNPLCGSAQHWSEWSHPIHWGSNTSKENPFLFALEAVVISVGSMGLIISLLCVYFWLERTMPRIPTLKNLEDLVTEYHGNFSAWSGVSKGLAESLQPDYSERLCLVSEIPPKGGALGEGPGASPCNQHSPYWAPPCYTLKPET
Protocol: Cells were deprived of growth factors by overnight incubation at 5×10^5 cells/mL in starvation medium (RPMI 1640 + 4.5 g/L glucose + 0.2% FBS + 2 mM L-glutamine + 1 mM NaPyr + 10 mM HEPES + 0.5x penicillin-streptomycin with no cytokine supplement) in T75 flasks. For assays, cells were plated in 96-well V-bottom plates at 2×10^5 cells/well. Three-fold serial dilutions in starvation medium of the test compounds or cytokine were added to the cells and incubated for 30 min at 37°C. Following incubation, cell extracts were prepared by adding a mixture of 10x Cell Lysis Buffer (Cell Signaling Technology Cat# 9803) and 100x HALT Phosphatase and Protease Inhibitor Cocktail (Thermo Fisher Cat# 78442) directly to the wells. The plates were agitated at 25°C for 5 min to prepare cell extracts for immediate use or to be stored at -80°C until assay. Detection of pSTAT5 was performed using a PathScan® Phospho-Stat5 (pTyr694) Sandwich ELISA Kit (Cell Signaling Technology Cat# 7113). Detection of pSTAT6 was performed using a PathScan® Phospho-Stat6 (pTyr641) Sandwich ELISA Kit (Cell Signaling Technology Cat# 7275). Detection of pSTAT3 was performed using a PathScan® Phospho-Stat3 (pTyr705) Sandwich ELISA Kit (Cell Signaling Technology Cat# 7300). Cell lysates were added to pre-coated ELISA wells and incubated at 4°C overnight. […]

Ac-GWGIPWCTLDPGSLQCAWLGKHGGGGSGGVVCQDWEGVELCWQGG (disulfide 7-16, 32-41) [MDK1472]
half-life [1]: 104 h
IC50 [2]: ~5 µM
